Values joined by “and” are separate entries in the source; they are usually repeats but may differ in a detail not shown here. Identical values can stand only once.
What was measured:
Type in all cases: biochemical
[1] = target: hCA II (Homo sapiens, UniProt P00918); assay: biochemical; settings: for Ki: Lineweaver–Burk plots, three concentrations
Experimental: (§1) CA isoenzymes (CA I and CA II) were purified using a Sepharose-4B-L tyrosine-sulphanilamide affinity chromatography. Activities of CA isoenzymes were determined according to method by Verpoorte et al.. […] The experimental procedure was given in detail in our previous papers. SSpectrophotometry-based Ellman’s method was used to test the compounds’ AChE inhibitory effects. Acetylthiocholine iodide (AChI) was used as a substrate of the reaction. 5,5-dithiobis(2-nitro-benzoic acid) (DTNB) was used for the determination of the AChE activities. An activity (%)-[Compound] graph was drawn to calculate the inhibition effects of the compounds on CAs and AChE. The IC50 values were obtained from activity (%) versus compounds plots. Three different concentrations were used to calculate Ki values. The Lineweaver–Burk plots were drawn, and calculations were realized as described.

[2] = target: hCA I (Homo sapiens, UniProt P00915); assay: biochemical; settings: for Ki: Lineweaver–Burk plots, three concentrations
Experimental: as §1

[3] = target: AChE (Electrophorus electricus, UniProt O42275); assay: AChE inhibition (Ellman's method); settings: in terms of Ki value
Experimental: as §1

hCA I, sequence (P00915 whole entry): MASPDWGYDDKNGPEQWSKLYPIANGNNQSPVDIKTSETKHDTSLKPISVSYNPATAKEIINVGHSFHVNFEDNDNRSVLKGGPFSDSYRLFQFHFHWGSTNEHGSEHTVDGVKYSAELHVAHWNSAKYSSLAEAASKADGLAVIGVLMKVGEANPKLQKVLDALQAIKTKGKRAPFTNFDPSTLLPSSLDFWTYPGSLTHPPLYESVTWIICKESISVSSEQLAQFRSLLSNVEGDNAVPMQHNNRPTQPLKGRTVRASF
AChE, sequence (O42275 24-633): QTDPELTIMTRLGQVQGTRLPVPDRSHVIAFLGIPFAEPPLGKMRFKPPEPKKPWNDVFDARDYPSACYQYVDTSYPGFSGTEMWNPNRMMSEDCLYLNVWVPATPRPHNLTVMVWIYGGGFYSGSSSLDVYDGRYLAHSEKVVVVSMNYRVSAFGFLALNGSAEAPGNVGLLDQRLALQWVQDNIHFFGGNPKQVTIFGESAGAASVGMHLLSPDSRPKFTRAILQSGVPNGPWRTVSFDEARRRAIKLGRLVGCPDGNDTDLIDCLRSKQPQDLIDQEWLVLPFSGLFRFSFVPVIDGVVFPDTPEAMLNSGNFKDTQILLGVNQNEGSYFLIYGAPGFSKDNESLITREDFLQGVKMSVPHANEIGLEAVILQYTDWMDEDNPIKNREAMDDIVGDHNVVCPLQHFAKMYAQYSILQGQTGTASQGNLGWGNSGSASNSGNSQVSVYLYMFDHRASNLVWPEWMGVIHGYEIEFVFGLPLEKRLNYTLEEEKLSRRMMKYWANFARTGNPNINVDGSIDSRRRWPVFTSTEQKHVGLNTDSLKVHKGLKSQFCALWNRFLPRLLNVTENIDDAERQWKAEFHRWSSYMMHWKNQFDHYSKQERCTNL

## COc1ccc(/C=C(\NC(=O)c2ccccc2)C(=O)Nc2ccc(S(=O)(=O)Nc3nc(C)cc(C)n3)cc2)cc1 [3g]
[1]
  IC50: 26.7 nM
  Ki: 14.9 ± 3.1 nM
[1]; based on Ki values
  times more potent than AZA toward hCA II: 1.5 ×
[2]
  IC50: 21 nM
  Ki: 4.07 ± 0.38 nM
[2]; based on Ki values
  times more potent than 3e on hCA I: 2 ×
  times more potent than AZA toward hCA I: 7.5 ×
  times more potent than compound 2 on hCA I: 12.4 ×

## COc1ccc(/C=C(\NC(=O)c2ccccc2)C(=O)Nc2ccc(S(=O)(=O)NC(=N)N)cc2)cc1 [3b]
[1]
  IC50: 24.8 nM
  Ki: 12.6 ± 2.54 nM
[1]; based on Ki values
  times more potent than AZA toward hCA II: 1.8 ×
[2]
  IC50: 19.8 nM
  Ki: 29.7 ± 3.18 nM

## COc1ccc(/C=C(\NC(=O)c2ccccc2)C(=O)Nc2ccc(S(=O)(=O)NC(C)=O)cc2)cc1 [3a]
[1]
  IC50: 20.4 nM
  Ki: 18.7 ± 1.59 nM
[1]; based on Ki values
  times more potent than AZA toward hCA II: 1.2 ×
[2]
  IC50: 27.7 nM
  Ki: 17.6 ± 4.72 nM
[2]; based on Ki values
  times more potent than AZA toward hCA I: 1.7 ×

## COc1ccc(C=C2N=C(c3ccccc3)OC2=O)cc1 [compound 2, 4-(4-methoxybenzylidene)-2-phenyloxazol-5(4H)-one]
[1]
  IC50: 46.2 nM
  Ki: 62.5 ± 11.5 nM
[2]
  IC50: 40.8 nM
  Ki: 50.3 ± 1.59 nM

## COc1ccc(/C=C(\NC(=O)c2ccccc2)C(=O)Nc2ccc(S(=O)(=O)Nc3nccs3)cc2)cc1 [3d]
[1]
  IC50: 21 nM
  Ki: 16.9 ± 3.76 nM
[1]; based on Ki values
  times more potent than AZA toward hCA II: 1.3 ×
[2]
  IC50: 22.4 nM
  Ki: 9.16 ± 0.46 nM
[2]; based on Ki values
  times more potent than AZA toward hCA I: 3.3 ×

## COc1ccc(/C=C(\NC(=O)c2ccccc2)C(=O)Nc2ccc(S(=O)(=O)Nc3nccc(C)n3)cc2)cc1 [3f]
[1]
  IC50: 24.8 nM
  Ki: 21.4 ± 3.47 nM
[2]
  IC50: 28.9 nM
  Ki: 11.3 ± 1.7 nM
[2]; based on Ki values
  times more potent than AZA toward hCA I: 2.7 ×
[3]
  times more potent than 3e on AChE: 3.8 ×
  times more potent than 3g on AChE: 1.5 ×

## COc1ccc(/C=C(\NC(=O)c2ccccc2)C(=O)Nc2ccc(S(=O)(=O)Nc3ncccn3)cc2)cc1 [3e]
[1]
  IC50: 25.7 nM
  Ki: 37.2 ± 7.55 nM
[2]
  IC50: 25.7 nM
  Ki: 8.02 ± 0.88 nM
[2]; based on Ki values
  times more potent than AZA toward hCA I: 3.8 ×

## COc1ccc(/C=C(\NC(=O)c2ccccc2)C(=O)Nc2ccc(S(N)(=O)=O)cc2)cc1 [3c]
[1]
  IC50: 30.1 nM
  Ki: 10.7 ± 0.98 nM
[1]; based on Ki values
  times more potent than AZA toward hCA II: 2.1 × and 2 ×
  times more potent than compound 2 on hCA II: 5.8 ×
[2]
  IC50: 20.4 nM
  Ki: 6.33 ± 0.51 nM
[2]; based on Ki values
  times more potent than AZA toward hCA I: 4.8 ×
